{"source": "patent US9827315B2", "about": "“Compositions of pharmaceutical actives containing diethylene glycol monoethyl ether or other alkyl derivatives” (THEMIS MEDICARE LIMITED, priority 2013, dated 2017)", "key": {"[1]": {"test": "Intramuscular, Intravenous and Intraocular safety studies", "conditions": "in vivo"}, "[2]": {"conditions": "water; cited from earlier work"}, "[3]": {"test_system": "Rabbits (New Zealand White)", "test": "Acute Eye Irritation/Corrosion Test in Rabbits", "assay_type": "in vivo", "procedure": "Acute Eye Irritation/Corrosion Test for Diethylene Glycol Monoethyl Ether (Transcutol HP) in Rabbits • Test Item Transcutol HP • Diluted with: Water for injection • Test System Rabbits (New Zealand White) • Total No. of Animals: 6 animals for initial test • 12 animals for confirmatory test • No. of groups: 6 Study Design:\nInitial test is carried out by using one animal per group.\nIrrigation was carried out after 24 hrs from the treatment and the animals are again observed for symptoms of toxicity.\nConfirmatory test is carried out by using two animals per group.\nThe dosing methodology and irrigation procedure was same as mentioned in the initial test and the observations were found as follows: […]"}}, "data": [{"smiles": "CCOCCOCCO", "note": "[Diethylene glycol monoethyl ether, 2-(2-Ethoxyethoxy)ethanol]", "values": [{"measurement": "safety in Intramuscular, Intravenous and Intraocular studies", "setting": "[1]", "result": "safe and non toxic"}, {"measurement": "Solubility in water (descriptive)", "setting": "[2]", "result": "soluble"}, {"measurement": "eye irritation, confirmatory test", "setting": "[3]; 1 hr, first three groups", "result": "no test item related effects"}, {"measurement": "eye irritation, confirmatory test", "setting": "[3]; 1 hr, group 4 and group 5", "result": "Mild irritation"}, {"measurement": "eye irritation, confirmatory test", "setting": "[3]; 1 hr, group 6", "result": "severe irritation"}, {"measurement": "eye irritation, initial test", "setting": "[3]; 24 hr, all animals except group 6", "result": "normal"}, {"measurement": "eye irritation, confirmatory test", "setting": "[3]; 24 hr, group 1 to group 3", "result": "normal"}, {"measurement": "eye irritation, confirmatory test", "setting": "[3]; 24 hr, group 4 and group 5", "result": "mild irritation including Chemosis, lacrimation and mild pupillary constriction"}, {"measurement": "eye irritation, confirmatory test", "setting": "[3]; 24 hr, group 6", "result": "severe irritation"}, {"measurement": "eye irritation, initial test", "setting": "[3]; 24 hr, group 6", "result": "mild irritation including Chemosis and Lacrimation"}, {"measurement": "ocular toxicity, summary", "setting": "[3]; concentration of 100%, intra occularly", "result": "irritant but not corrosive"}, {"measurement": "eye irritation, initial test", "setting": "[3]; first hour, first three groups", "result": "no test item related effects"}, {"measurement": "eye irritation, initial test", "setting": "[3]; first hour, group 4 and 5", "result": "Mild irritation"}, {"measurement": "eye irritation, initial test", "setting": "[3]; first hour, group 6", "result": "moderate irritation"}, {"measurement": "corrosion effect, initial test", "setting": "[3]; rabbit, in vivo", "result": "no corrosion effect"}, {"measurement": "ocular toxicity, summary", "setting": "[3]; up to 80% of concentration", "result": "not showing any occular toxicity"}]}]}
